Experimental data reported in patent US20080182853A1, “Methods of neuroprotection by cyclin-dependent kinase inhibition” (priority 2006, published 2008).

Assays:
cortical neurons [1] = system: cortical neurons
Method: Treatment with 1 μM PD 0332991 (obtained from Pfizer) was carried out for 12 h in complete medium; H2O2 was added at the indicated times and doses.
Analysis of neuronal survival and apoptosis. Neuronal viability was assessed by quantifying apoptotic nuclei following the treatments. Cells were fixed and stained with DNA-binding dye propidium iodide (PI) (10 μg/ml; Sigma), and the percentage of cells with apoptotic nuclei was calculated as described previously (Kruman, I. I., et al. 2002. J. Neurosci. 22:1752-1762; Tenneti, L. and S. A. Lipton. 2000. J Neurochem. 74:134-142). Nuclear staining was viewed and photographed using a Zeiss fluorescence microscope. Apoptosis was also determined by immunoblot analysis for activated (cleaved) caspase-3 (polyclonal; 1 μg/ml; Upstate Cell Signaling Solutions), cleaved Mcm3 (polyclonal, 1:200; Santa-Cruz), Mcm2 (BM28; monoclonal; 1:200; BD Biosciences), and fractin (cleaved β-actin; 1:3000; Chemicon) in cellular extracts from corresponding neuronal 5 cultures.

cortical neurons [2] = conditions: 5 μM H2O2, 6 h; neutral comet assay; FIG. 2A
Method: Single Cell Gel Electrophoresis (Comet assay). DNA damage was assessed using the alkaline or neutral single-cell gel electrophoresis (comet assay) method (Kruman, I. I., et al. 2004. Neuron. 41:549-561; Kruman, I. I., et al. 2002. J Neurosci. 22:1752-176229). We used the neutral comet assay which is specific for detecting DSBs (Wojewodzka, M., et al. 2002. Mutat Res. 518:9-20). Following treatment, neurons were scraped and cell suspensions (˜10,000 cells) were embedded into 0.5% low melting agarose on slides (Trevigen, Gaithersburg, Md.). After treatment with cold lysis buffer (Trevigen) containing 1% Triton X-100 and 10% DMSO, the slides were incubated for 1 h in freshly prepared electrophoresis buffer, 300 mM sodium acetate, 100 mM Tris HCl, pH 8.3 (neutral comet assay) or 300 mM NaOH, 1 mM EDTA, pH>13 (alkaline comet assay). Then electrophoresis was performed at 14V and 60 mA for 1 h (neutral comet assay) or at 25V and 300 mA for 30 min (alkaline comet assay) at 8° C., stained with SYBR green (Trevigen), and analyzed using an Olympus BX51 fluorescent microscope and the comet assay image analysis software (Loats Associates Inc.). […] Images of 50 randomly selected cells were analysed from each slide. […]

tumor = conditions: mice; cited from earlier work
pRb phosphorylation = pRb phosphorylation by Western blot in cortical neurons; assay type: cell-based, rat; conditions: 12 h pretreatment with 1 μM PD 0332991, then 100 μM H2O2 for 6 h; FIG. 4A
Method: Immunoblot analyses. For total cell lysates, cortical neurons were lysed in ice-cold buffer consisting of 63 mM Tris, 2 mM EDTA, 2 mM EGTA, 2% sodium dodecyl sulfate, 10% glycerol, and a protease inhibitor cocktail (Sigma), pH 6.0. For the preparation of nuclear lysates (for analysis of cyclin D1 and γ-H2AX), cortical neurons were lysed in ice-cold buffer containing protease inhibitor cocktail (Sigma) and incubated with hydrochloric acid (0.2 M) on ice for 30 min.
As a loading control we used anti-β-actin or anti-glyceraldehyde-3-phosphate dehydrogenase (GAPDH) antibodies.
Protein bands were visualized with horseradish peroxidase-conjugated secondary antibodies (1:3000; Jackson Immunological Research Laboratories Inc.) and enhanced using chemiluminescence (ECL kit, Amersham Corp.). Densitometric analysis of the blots were performed using the Kodak software ID 3.5.3 USB, and the intensity of the signal (normalized to the β-actin signals) was expressed as a ratio of the control signals.

CDK4 and CDK6 = conditions: Fry et al. 2004; cited from earlier work
primary cortical neurons = experiment: H2O2-induced apoptosis in cultured cortical neurons (apoptotic nuclei count); assay type: cell-based, rat; conditions: 12 h pretreatment with 1 μM PD 0332991, then 100 μM H2O2 for 18 h; Hoechst 33342; FIG. 4B
Method: All experiments involving the use of animals were approved by the IACUC at the Georgetown University Medical Center, Washington, D.C. Primary cortical cell cultures were established from E18 Sprague-Dawley rats obtained from Jackson Laboratories.
Following dissociation by mild trypsinization and trituration, cells were seeded onto plastic dishes or chamber slides precoated with 0.025 μg/ml poly-L-lysine, at a density of 1.3×10^3 neurons/mm^2 in Neurobasal medium containing B-27 supplement, 1 mM HEPES, 2 mM […] and 0.001% gentamycin sulfate; fresh medium was replaced after 30 minutes.
Analysis of neuronal survival and apoptosis.

ischemia models = conditions: in vivo; cited from earlier work
neuronal apoptosis = conditions: in vitro; cited from earlier work

In the case of `OO` [H2O2, hydrogen peroxide], the “apoptosis of cortical neurons” value (cortical neurons [1]; 5 μM H2O2, by 24 h or 48 h) is reported as “did not induce apoptosis”, the “apoptotic death of cortical neurons” value (cortical neurons [1]; 100 μM H2O2, FIG. 1) is reported as “significant apoptotic death beginning by 9 h” and the “DNA damage (comet tails)” value (cortical neurons [2]) is reported as “significant increase of DNA damage”.
For `CC(=O)c1c(C)c2cnc(Nc3ccc(N4CCNCC4)cn3)nc2n(C2CCCC2)c1=O` [PD 0332991], the tumor regression (tumor) is given as “effective in causing tumor regression in mice”, the “phosphorylation of pRb” value (pRb phosphorylation) is given as “down-regulates phosphorylation of pRb” and the “specificity as inhibitor of CDK4 and CDK6” value (CDK4 and CDK6) is given as “highly specific inhibitor of CDK4 and CDK6”. The extent of apoptosis (primary cortical neurons) was “significant reduction in the extent of apoptosis”.
In the case of `CN1CC[C@H](c2c(O)cc(O)c3c(=O)cc(-c4ccccc4Cl)oc23)[C@H](O)C1` [flavopiridol], the “protection in ischemia models” value (ischemia models) is listed as “protective” and the “prevention of neuronal apoptosis” value (neuronal apoptosis) is listed as “very potent in preventing neuronal apoptosis in vitro”.
